{"source": "patent US20110256121A1", "about": "“METHODS AND KITS FOR DIAGNOSING OR MONITORING AUTOIMMUNE AND CHRONIC INFLAMMATORY DISEASES” (THE REGENTS OF THE UNIVERSITY OF MICHIGAN, priority 2008, published 2011)", "format_in_all_cases": "cell-based, human", "key": {"[1]": {"test_system": "KIR2DL4 promoter", "experiment": "KIR2DL4 promoter reporter construct assay in T cells", "method": "(§1) Reporter construct assays. Amplified KIR promoter fragments were subcloned into the EcoRI site of the promoterless pmaxFP-Yellow-PRL vector (Amaxa GmbH). Plasmids were purified using QIAGEN EndoFree Plasmid Kits (QIAGEN), and 2 μg of DNA transfected into untreated or 5-azaC treated human T cells using the human T cell nucleofector kit (Amaxa GmbH) and the manufacturer's protocol. Controls included cotransfection with pmaxGFP (Amaxa GmbH) and transfection with the promoterless reporter vector. Fluorescence was measured by flow cytometry. Site directed mutagenesis. Mutations were introduced into the same pmaxFP-Yellow-PRL KIR2DL2 and KIR2DL4 promoter constructs using the QuickChange Multi Site-Directed Mutagenesis Kit (Stratagene, La Jolla, Calif.). The changes include a […]→[…] mutation at −78→−71 in the Sp1 site, a CCC→ACA mutation at −61→−59 in the Ets1 site, or both, in the KIR2DL2 promoter, and a TTT→GGG mutation at −73→−71 in the Ets1 site, a CCC→ACA mutation at −61→−59 in the Ets1 site, or both, in the KIR2DL4 promoter. A separate G→A mutation in the AML site was also introduced into both promoters at −98 (16; 17). The constructs were transfected in to PHA stimulated, 5-azaC treated T cells as above. Controls included transfection with pmaxGFP.\n(§2) Effects of 5-azaC on KIR transcriptional activator-DNA interactions. […]"}, "[2]": {"test_system": "KIR2DL2 promoter", "experiment": "KIR2DL2 promoter reporter construct assay in T cells", "method": "as §1, §2"}, "[3]": {"test_system": "T cell gene expression", "experiment": "Microarray detection of KIR expression in 5-azaC treated T cells", "method": "T cell purification and culture. Peripheral blood mononuclear cells (PBMC) were isolated from healthy donors by density gradient centrifugation, stimulated for 18 hours with 1 μg/mlphytohemagglutinin (PHA) (Murex, Norcross, Ga.), then treated or not with 5 μm 5-azacytidine (5-azaC, Sigma, St. Louis, Mo.) for 72 hours as described (6). Total T cells, CD4^+ T cells or CD8′ T cells then were purified using the pan T cell isolation kit II or the CD4^+ and CD8^+ T cell isolation kit II from Miltenyi (Auburn, Calif.). T cells were typically >94% CD3^+ by flow cytometry. Jurkat cells (E6-1) were maintained in culture as described (11). This protocol was approved by the University of Michigan Institutional Review Board.\nMicroarray analysis. RNA from 5-azaC treated and untreated T cells was analyzed with HG-U133A arrays (Affymetrix, Santa Clara Calif.), containing 22283 probe-sets representing ˜13000 distinct genes, as described (6). Probe-set intensities were obtained and normalized as described (12). Two-sample T-tests were used to compare groups, and fold-changes were determined using the ratio of the group means, after replacing means of less than 50 with 50. The array data are available from NCBI's Gene Expression Omnibus using series accession number GSE6008.\nMicroarray detection of KIR expression in 5-azaC treated T cells. Effects of DNA methylation inhibition on T cell gene expression were tested by stimulating PBMC from healthy donors with PHA, treating with 5-azaC, and comparing gene expression patterns in treated and untreated T cells with microarrays. 682 probe-sets were obtained giving p<0.01, out of a total of 22283 probe-sets, so that approximately 223 of the 682 probe-sets were expected to be false-positives. Further demanding at least a 1.5 fold difference in the means of treated and untreated groups reduced the list to 250 probe-sets, 6 of which were KIR genes (KIR2DL1 5.7 fold p=0.003, KIR3DL1 5.7 fold p=0.001, KIR2DL2 4.2 fold p=0.0005, KIR2DS4 2.8 fold p=0.009, KIR2DL3 2.3 fold p=0.004, and KIR2DL4 1.7 fold p=0.008), out of a total of 12 KIR genes on the array, indicating enrichment of this gene family (FIG. 24)."}, "[4]": {"test_system": "KIR2DL2 and KIR2DL4 promoters", "experiment": "Chromatin immunoprecipitation (ChIP) assays", "details": "5-azaC treated vs untreated, n=3, p<0.03", "method": "Chromatin immunoprecipitation (ChIP) assays. Transcription factor binding to KIR2DL2 and KIR2DL4 promoter sequences was determined using mAb to Sp1 (Upstate Biotechnology), Ets1 and AML1 (Abcam) and the ChIP-IT kit with protocols provided by the manufacturer (Active Motif, Carlsbad, Calif.). Briefly, 4.5×10^7 untreated and 5-azaC treated T cells were crosslinked, sonicated, chromatin immunoprecipitated with the relevant mAb, and precipitated DNA amplified by real-time PCR using a Rotor-Gene 3000. Standard curves were determined for each primer set by dilution of the total input 5-azaC treated DNA in a 0.1-100 ng range. The amount of each sequence in the input and precipitated DNA was calculated from the cycle threshold (CT) for each primer set using the standard curves. The primers used were: […]\nChIP assays were then used to compare transcription factor binding to the KIR2DL2 and KIR2DL4 promoters in untreated and 5-azaC treated cells. […] The reason for this is uncertain, but may reflect the structural differences in the KIR2DL2 and KIR2DL4 promoters."}, "[5]": {"details": "5-azaC treated vs untreated T cells, FIG. 29b, p<0.005"}, "[6]": {"details": "relative to untreated T cells, FIG. 29c"}}}
{"smiles": "Nc1ncn([C@@H]2O[C@H](CO)[C@@H](O)[C@H]2O)c(=O)n1", "note": "[5-azaC, 5-azacytidine]", "values": [{"measurement": "increase of KIR2DL4 promoter function", "setting": "[1]; [5]", "result": "3-4 fold"}, {"measurement": "increase of expression of the unmodified KIR2DL4 construct", "setting": "[1]; [6]", "result": "~3", "unit": "fold"}, {"measurement": "increase of KIR2DL2 promoter function", "setting": "[2]; [5]", "result": "3-4 fold"}, {"measurement": "increase of expression of the unmodified KIR2DL2 construct", "setting": "[2]; [6]", "result": "~2", "unit": "fold"}, {"measurement": "KIR2DL2 expression, treated vs untreated", "setting": "[3]; PHA-stimulated, p=0.0005", "result": 4.2, "unit": "fold"}, {"measurement": "KIR3DL1 expression, treated vs untreated", "setting": "[3]; PHA-stimulated, p=0.001", "result": 5.7, "unit": "fold"}, {"measurement": "KIR2DL1 expression, treated vs untreated", "setting": "[3]; PHA-stimulated, p=0.003", "result": 5.7, "unit": "fold"}, {"measurement": "KIR2DL3 expression, treated vs untreated", "setting": "[3]; PHA-stimulated, p=0.004", "result": 2.3, "unit": "fold"}, {"measurement": "KIR2DL4 expression, treated vs untreated", "setting": "[3]; PHA-stimulated, p=0.008", "result": 1.7, "unit": "fold"}, {"measurement": "KIR2DS4 expression, treated vs untreated", "setting": "[3]; PHA-stimulated, p=0.009", "result": 2.8, "unit": "fold"}, {"measurement": "KIR2DS1 expression increase", "setting": "[3]; not statistically significant", "result": "> 1.5", "unit": "fold"}, {"measurement": "KIR2DS3 expression increase", "setting": "[3]; not statistically significant", "result": "> 1.5", "unit": "fold"}, {"measurement": "KIR3DL2 expression increase", "setting": "[3]; not statistically significant", "result": "> 1.5", "unit": "fold"}, {"measurement": "binding of Sp1, Ets1 and AML1 to both promoters", "setting": "[4]", "result": "increases binding of all 3 transcription factors"}]}
